# Columns and labels:
# Type in all cases: functional
# Conditions in all cases: read-out: DIZ
# Escherichia coli = experiment: Antimicrobial activity against Escherichia coli DSM 8579 assessed as growth inhibition at 7 ug per disc after 24 to 48 hrs (reference value: 0 millimeter)
# Bacillus cereus [1] = experiment: Antimicrobial activity against Bacillus cereus DSM 4384 assessed as growth inhibition at 7 ug per disc after 24 to 48 hrs (reference value: 0 millimeter)
# Bacillus cereus [2] = experiment: Antimicrobial activity against Bacillus cereus DSM 4313 assessed as growth inhibition at 7 ug per disc after 24 to 48 hrs (reference value: 0 millimeter)
# Pseudomonas aeruginosa = experiment: Antimicrobial activity against Pseudomonas aeruginosa DSM 50071 assessed as growth inhibition at 7 ug per disc after 24 to 48 hrs (reference value: 0 millimeter)
# Staphylococcus aureus = experiment: Antimicrobial activity against Staphylococcus aureus DSM 25923 assessed as growth inhibition at 7 ug per disc after 24 to 48 hrs (reference value: 0 millimeter)
compound,measurement,setting,value
CN(C)[C@@H]1C(O)=C(C(N)=O)C(=O)[C@@]2(O)C(O)=C3C(=O)c4c(O)cccc4[C@@](C)(O)[C@H]3C[C@@H]12 [TETRACYCLINE],zone of inhibition at 7 µg/disc,Escherichia coli,12.7 mm
same,zone of inhibition at 7 µg/disc,Bacillus cereus [1],8.67 mm
same,zone of inhibition at 7 µg/disc,Bacillus cereus [2],10.3 mm
same,zone of inhibition at 7 µg/disc,Pseudomonas aeruginosa,9.67 mm
same,zone of inhibition at 7 µg/disc,Staphylococcus aureus,11.3 mm

# From ChEMBL document CHEMBL4190191, “Cyclic Diarylheptanoids from Corylus avellana Green Leafy Covers: Determination of Their Absolute Configurations and Evaluation of Their Antioxidant and Antimicrobial Activities” (J Nat Prod, 2017)
